According to patent US8163940B2, “Method for preparation of amorphous, anhydrous crystalline or hydrated crystalline docetaxel” (Samyang Genex Corporation, priority 2006, dated 2012):
Values joined by “and” are separate entries in the source; they are usually repeats but may differ in a detail not shown here. Equal entries are not always repeated.

Assay: Stability of docetaxel dissolved and left standing in alcohols at 50° C. (HPLC purity and degradation degree)
Format: physicochemical
Settings: dissolution and standing at 50° C.
Experimental: The purity and recovery rate of docetaxel in the present specification were calculated by quantity analysis using HPLC under the conditions of Table 2.
To evaluate the stability of docetaxel in the case that hydrated crystalline docetaxel is prepared by dissolution in alcohols at a high temperature, methanol and ethanol were each used as an organic solvent and dissolution temperature and standing temperature were 50° C., and change in purity of docetaxel and degradation degree were measured after letting it stand for 0, 1, 5, 10, and 24 hours.

Compound: CC(=O)O[C@@]12CO[C@@H]1C[C@H](O)[C@@]1(C)C(=O)[C@H](O)C3=C(C)[C@@H](OC(=O)[C@H](O)[C@@H](NC(=O)OC(C)(C)C)c4ccccc4)C[C@@](O)([C@@H](OC(=O)c4ccccc4)[C@H]21)C3(C)C [docetaxel]
- 7-epi-docetaxel Amounts Produced (EtOH, 0 hr): 0 area %
- Change in Purity of Docetaxel (EtOH, 0 hr): 99.7480%
- 7-epi-docetaxel Amounts Produced (EtOH, 1 hr): 0.4494 area %
- Change in Purity of Docetaxel (EtOH, 1 hr): 99.2959%
- 7-epi-docetaxel Amounts Produced (EtOH, 5 hr): 1.8948 area %
- Change in Purity of Docetaxel (EtOH, 5 hr): 97.8546%
- 7-epi-docetaxel Amounts Produced (EtOH, 10 hr): 2.9451 area %
- Change in Purity of Docetaxel (EtOH, 10 hr): 96.8045%
- 7-epi-docetaxel Amounts Produced (EtOH, 24 hr): 4.5544 area %
- Change in Purity of Docetaxel (EtOH, 24 hr): 95.1952%
- 7-epi-docetaxel Amounts Produced (MeOH, 0 hr): 0 area %
- Change in Purity of Docetaxel (MeOH, 0 hr): 99.7469%
- 7-epi-docetaxel Amounts Produced (MeOH, 1 hr): 4.0163 area %
- Change in Purity of Docetaxel (MeOH, 1 hr): 95.7% and 95.7399%
- 7-epi-docetaxel Amounts Produced (MeOH, 5 hr): 17.2282 area %
- Change in Purity of Docetaxel (MeOH, 5 hr): 81.8743%
- 7-epi-docetaxel Amounts Produced (MeOH, 10 hr): 28.4728 area %
- Change in Purity of Docetaxel (MeOH, 10 hr): 69.3707%
- 7-epi-docetaxel Amounts Produced (MeOH, 24 hr): 41.5352 area %
- Change in Purity of Docetaxel (MeOH, 24 hr): 50.7338%
